Assay results taken from patent US20080076760A1, “2,3,4,5-TETRAHYDRO-1H-1,5-BENZODIAZEPINE DERIVATIVE AND MEDICINAL COMPOSITION” (priority 2004, published 2008).
pKi: −log10 of the molar value. Where two headings read alike, the source gives them in different places.

Legend:
[1] = target: human vasopressin V2 receptor (Homo sapiens, UniProt P30518); experiment: Receptor binding study, [3H]AVP displacement on CHO cell membranes, human V2
Description: Preparation of Chinese hamster ovary (Cho) cell which expresses human vasopressin receptor subtype and production of membrane sample of the cell was conducted according to the method of Tahara et al. (Br. J. Pharmacol., 125, 1463-1470, 1998).
(§1) (ii) Receptor Binding Study
In saturation binding experiment, the membrane sample and [^3H]AVP of several concentrations (0.125 nM to 4.0 nM) were mixed and incubated in microplate wells. In displacement experiment, [^3H]AVP of constant concentrations (0.5 nM to 1.0 nM) and the membrane sample were mixed with Compound A of several concentrations, and incubation was performed. Assay was performed using 50 mM of Tris-HCl (pH=7.4) (total amount: 250 μL) (buffer composition: containing […] of MgCl2 and 0.1% BSA), and incubation was performed at room temperature (25° C.) for one hour. After incubation, suck filtration was immediately performed and reaction was completed when the membrane sample was collected on a glass fiber filter fitted with the microplate. After the filter was washed with an ice-cold Tris-HCl buffer (50 mM Tris-HCl, 10 mM MgCl2, pH 7.4), radioactivity measurement was performed. Nonspecific binding was determined using nonradioactive-labeled AVP (1 μM).

[2] = target: human vasopressin V1a receptor (Homo sapiens, UniProt P37288); experiment: Receptor binding study, [3H]AVP displacement on CHO cell membranes, human V1a
Description: as §1
Assay was performed using 50 mM of Tris-HCl (pH=7.4) (total amount: 250 μL) (buffer composition: containing […] of MgCl2 and 0.1% BSA), and incubation was performed at room temperature (25° C.) for one hour. After incubation, suck filtration was immediately performed and reaction was completed when the membrane sample was collected on a glass fiber filter fitted with the microplate. After the filter was washed with an ice-cold Tris-HCl buffer (50 mM Tris-HCl, 10 mM MgCl2, pH 7.4), radioactivity measurement was performed. Nonspecific binding was determined using nonradioactive-labeled AVP (1 μM).

[3] = [3H]AVP displacement, CHO cell membrane, 25° C., one hour, read-out: Human V2 Ki
[4] = [3H]AVP displacement, CHO cell membrane, 25° C., one hour, read-out: Human V1a Ki

Sequence of human vasopressin V1a receptor (P37288 whole entry): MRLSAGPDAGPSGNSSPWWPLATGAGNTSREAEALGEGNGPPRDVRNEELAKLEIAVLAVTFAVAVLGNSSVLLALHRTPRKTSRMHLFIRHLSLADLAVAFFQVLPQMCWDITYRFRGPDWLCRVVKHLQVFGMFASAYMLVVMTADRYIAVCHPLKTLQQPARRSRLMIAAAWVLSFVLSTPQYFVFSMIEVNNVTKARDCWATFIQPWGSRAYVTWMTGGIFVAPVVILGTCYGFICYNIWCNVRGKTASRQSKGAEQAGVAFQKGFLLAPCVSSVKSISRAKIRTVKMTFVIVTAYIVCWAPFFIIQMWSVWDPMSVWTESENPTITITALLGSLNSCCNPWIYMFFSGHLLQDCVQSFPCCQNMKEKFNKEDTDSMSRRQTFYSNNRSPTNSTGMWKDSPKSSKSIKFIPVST
Sequence of human vasopressin V2 receptor (P30518 whole entry): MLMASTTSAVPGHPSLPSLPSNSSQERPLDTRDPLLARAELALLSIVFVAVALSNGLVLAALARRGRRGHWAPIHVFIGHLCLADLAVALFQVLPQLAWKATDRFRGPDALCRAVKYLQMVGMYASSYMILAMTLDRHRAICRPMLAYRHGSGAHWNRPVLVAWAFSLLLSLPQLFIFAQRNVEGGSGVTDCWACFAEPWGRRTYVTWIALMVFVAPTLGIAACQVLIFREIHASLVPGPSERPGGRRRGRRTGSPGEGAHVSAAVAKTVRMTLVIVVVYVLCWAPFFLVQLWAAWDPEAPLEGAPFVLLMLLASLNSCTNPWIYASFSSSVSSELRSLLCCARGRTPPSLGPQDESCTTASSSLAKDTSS

Row | SMILES | pKi [1, 3] | pKi [2, 4] | pKi [1] | pKi [2]
1 | CNCCCOc1cc(C(=O)N2CC[C@H](C)Nc3ccccc32)ccc1-c1ccc2[nH]ccc2c1 [Example 51, N-[3-[2-(1H-indol-5-yl)-5-[[(4S)-4-methyl-2,3,4,5-tetrahydro-1H-1,5-benzodiazepin-1-yl]carbonyl]phenoxy]propyl]-N-methylamine] | 7.92 | 10.10 |  | 
2 | CCCN(C)CCCCOc1cc(C(=O)N2CC[C@H](C)Nc3ccccc32)ccc1-c1ccc2[nH]ccc2c1 [Example 117, N-[4-[2-(1H-indol-5-yl)-5-[[(4S)-4-methyl-2,3,4,5-tetrahydro-1H-1,5-benzodiazepin-1-yl]carbonyl]phenoxy]butyl]-N-methyl-N-propylamine] |  |  | 7.92 | 9.68
3 | CCCN(C)CCCCOc1cc(C(=O)N2CC[C@H](C)Nc3ccccc32)ccc1-c1ccc(NCC)cc1 [Example 156] | 7.28 | 9.72 |  | 
4 | C[C@H]1CCN(C(=O)c2ccc(-c3ccc4[nH]ccc4c3)c(OCCCCN3CCN(C)CC3)c2)c2ccccc2N1 [Example 103] | 8.44 | 9.62 |  | 
5 | CC1CN(CCCOc2cc(C(=O)N3CC[C@H](C)Nc4ccccc43)ccc2-c2ccc3[nH]ccc3c2)CC(C)O1 (stereo partly drawn) [Example 80, (4S)-1-[3-[3-(2,6-dimethyl-4-morpholinyl)propoxy]-4-(1H-indol-5-yl)benzoyl]-4-methyl-2,3,4,5-tetrahydro-1H-1,5-benzodiazepine] | 8.29 | 10.19 |  | 
6 | CCCN(C)CCOc1cc(C(=O)N2CC[C@H](C)Nc3ccccc32)ccc1-c1ccc2[nH]ccc2c1 [Example 121, N-[2-[2-(1H-indol-5-yl)-5-[[(4S)-4-methyl-2,3,4,5-tetrahydro-1H-1,5-benzodiazepin-1-yl]carbonyl]phenoxy]ethyl]-N-methyl-1-propaneamine] | 8.00 | 9.85 |  | 
7 | C[C@H]1CCN(C(=O)c2ccc(-c3ccc4[nH]ccc4c3)c(OCCCN3CCC(N)CC3)c2)c2ccccc2N1 [Example 141, 1-[3-[2-(1H-indol-5-yl)-5-[[(4S)-4-methyl-2,3,4,5-tetrahydro-1H-1,5-benzodiazepin-1-yl]carbonyl]phenoxy]propyl]-4-piperidinylamine] | 8.00 | 9.35 |  | 
8 | CC1CCN(C(=O)c2ccc(-c3ccc4[nH]ccc4c3)c(OCCCCCCN)c2)c2ccccc2N1 (centres unmarked) [Example 39, 6-[2-(1H-indol-5-yl)-5-[(4-methyl-2,3,4,5-tetrahydro-1H-1,5-benzodiazepin-1-yl)carbonyl]phenoxy]hexylamine] | 8.28 | 9.66 |  | 
9 | Cc1ccc2c(c1)NC(C)CCN2C(=O)c1ccc(-c2ccc3[nH]ccc3c2)c(OCCN2CCOCC2)c1 (centres unmarked) [Example 104, 5-[(4,7-dimethyl-2,3,4,5-tetrahydro-1H-1,5-benzodiazepin-1-yl]carbonyl]-2-(1H-indol-5-yl)phenyl 2-(4-morpholinyl)ethyl ether] | 8.46 | 9.46 |  | 
10 | CCN(CC)CCCOc1cc(C(=O)N2CC[C@H](C)Nc3ccccc32)ccc1-c1ccc2[nH]ccc2c1 [Example 116, N,N-diethyl-3-[2-(1H-indol-5-yl)-5-[[(4S)-4-methyl-2,3,4,5-tetrahydro-1H-1,5-benzodiazepin-1-yl]carbonyl]phenoxy]-1-propaneamine] | 7.96 | 9.80 |  | 
11 | C[C@H]1CCN(C(=O)c2ccc(-c3ccc4[nH]ccc4c3)c(OCCCN3CCC(C(N)=O)CC3)c2)c2ccccc2N1 [Example 83, 1-[3-[2-(1H-indol-5-yl)-5-[[(4S)-4-methyl-2,3,4,5-tetrahydro-1H-1,5-benzodiazepin-1-yl]carbonyl]phenoxy]propyl]-4-piperidine carboxamide] | 7.77 | 9.89 |  | 
12 | C[C@H]1CCN(C(=O)c2ccc(-c3ccc4[nH]ccc4c3)c(C(=O)OCCCN3CCN(C)CC3)c2)c2ccccc2N1 [Example 136, 3-(4-methyl-1-piperazinyl)propyl 2-(1H-indol-5-yl)-5-[[(4S)-4-methyl-2,3,4,5-tetrahydro-1H-1,5-benzodiazepin-1-yl]carbonyl]benzoate] | 7.80 | 9.64 |  | 
13 | CCCN(C)CCCOc1cc(C(=O)N2CC[C@H](C)Nc3ccccc32)ccc1-c1ccc(N)cc1 [Example 164, 2′-[3-[methyl(propyl)amino]propoxy]-4′-[[(4S)-4-methyl-2,3,4,5-tetrahydro-1H-1,5-benzodiazepin-1-yl]carbonyl][1,1′-biphenyl]-4-amine] | 6.32 | 9.82 |  | 
14 | C[C@H]1CCN(C(=O)c2ccc(-c3ccc4[nH]ccc4c3)c(N3CCOCC3)c2)c2ccccc2N1 [Example 134, (4S)-1-[4-(1H-indol-5-yl)-3-(4-morpholinyl)benzoyl]-4-methyl-2,3,4,5-tetrahydro-1H-1,5-benzodiazepine] | 8.57 | 9.31 |  | 
15 | COc1cc(C(=O)N2CC[C@H](C)Nc3ccccc32)ccc1-c1ccc2[nH]ccc2c1 [Example 47, (4S)-1-[4-(1H-indol-5-yl)-3-methoxybenzoyl]-4-methyl-2,3,4,5-tetrahydro-1H-1,5-benzodiazepine] | 8.92 | 9.41 |  | 
16 | C[C@H]1CCN(C(=O)c2ccc(-c3ccc4[nH]ccc4c3)c(C(=O)N3CCN(C)CC3)c2)c2ccccc2N1 [Example 102, (4S)-1-[4-(1H-indol-5-yl)-3-[(4-methyl-1-piperazinyl)carbonyl]benzoyl]-4-methyl-2,3,4,5-tetrahydro-1H-1,5-benzodiazepine] | 7.21 | 9.60 |  | 
17 | C[C@H]1CCN(C(=O)c2ccc(-c3ccc4[nH]ccc4c3)c(C(=O)OCCCN(C)C)c2)c2ccccc2N1 [Example 120, 3-(dimethylamino)propyl 2-(1H-indol-5-yl)-5-[[(4S)-4-methyl-2,3,4,5-tetrahydro-1H-1,5-benzodiazepin-1-yl]carbonyl]benzoate] | 7.03 | 9.70 |  | 
18 | C[C@H]1CCN(C(=O)c2ccc(-c3ccc4[nH]ccc4c3)c(OCCCN3CCCN(C)CC3)c2)c2ccccc2N1 [Example 109, (4S)-1-[4-(1H-indol-5-yl)-3-[3-(4-methyl-1,4-diazepane-1-yl)propoxy]benzoyl]-4-methyl-2,3,4,5-tetrahydro-1H-1,5-benzodiazepine] | 8.15 | 9.89 |  | 
19 | C[C@H]1CCN(C(=O)c2ccc(-c3ccc4[nH]ccc4c3)c(C(=O)CCCCN(C)C)c2)c2ccccc2N1 [Example 158, 5-(dimethylamino)-1-[2-(1H-indol-5-yl)-5-[[(4S)-4-methyl-2,3,4,5-tetrahydro-1H-1,5-benzodiazepin-1-yl]carbonyl]phenyl]-1-pentanone] | 7.89 | 9.96 |  | 
20 | C[C@H]1CCN(C(=O)c2ccc(-c3ccc4[nH]ccc4c3)c(NS(C)(=O)=O)c2)c2ccccc2N1 [Example 48, N-[2-(1H-indol-5-yl)-5-[[(4S)-4-methyl-2,3,4,5-tetrahydro-1H-1,5-benzodiazepin-1-yl]carbonyl]phenyl]methanesulfonamide] | 8.82 | 9.64 |  | 
21 | CC1CCN(C(=O)c2ccc(-c3ccc4[nH]ccc4c3)c(OCCN3CCOCC3)c2)c2ccccc2N1 (centres unmarked) [Example 46, 2-(1H-indol-5-yl)-5-[(4-methyl-2,3,4,5-tetrahydro-1H-1,5-benzodiazepin-1-yl)carbonyl]phenyl 2-(4-morpholinyl)ethyl ether] | 8.96 | 9.62 |  | 
22 | C[C@H]1CCN(C(=O)c2ccc(-c3ccc4[nH]ccc4c3)c(OCCCCCN3CCOCC3)c2)c2ccccc2N1 [Example 69, (4S)-1-[4-(1H-indol-5-yl)-3-[[5-(4-morpholinyl)pentyl]oxy]benzoyl]-4-methyl-2,3,4,5-tetrahydro-1H-1,5-benzodiazepine] | 7.77 | 9.62 |  | 
23 | CCCN(C)CCCOc1cc(C(=O)N2CC[C@H](C)Nc3ccccc32)ccc1-c1ccc(NC)cc1 [Example 105, N-methyl-2′-[3-[methyl(propyl)amino]propoxy]-4′-[[(4S)-4-methyl-2,3,4,5-tetrahydro-1H-1,5-benzodiazepin-1-yl]carbonyl][1,1′-biphenyl]-4-amine] | 7.27 | 9.80 |  | 
24 | CC1CCN(C(=O)c2ccc(-c3ccc4[nH]ccc4c3)c(OCCCN(C)C)c2)c2ccccc2N1 (centres unmarked) [Example 42, 3-[2-(1H-indol-5-yl)-5-[(4-methyl-2,3,4,5-tetrahydro-1H-1,5-benzodiazepin-1-yl)carbonyl]phenoxy]-N,N-dimethyl-1-propaneamine] | 7.47 | 9.72 |  | 
25 | CCCCCN(C)CCCCOc1cc(C(=O)N2CC[C@H](C)Nc3ccccc32)ccc1-c1ccc2[nH]ccc2c1 [Example 174, N-[4-[2-(1H-indol-5-yl)-5-[[(4S)-4-methyl-2,3,4,5-tetrahydro-1H-1,5-benzodiazepin-1-yl]carbonyl]phenoxy]butyl]-N-methyl-1-pentaneamine] | 7.96 | 9.46 |  | 
